Where two headings read alike, the source gives them in different places.
Tests used:
[1] = test system: HT-29 (human colon carcinoma) cells; assay: cells; assay type: cell-based; settings: read-out: IC50 (nM) HT-29
Method: (§1) In this example, a series of in vitro assays were conducted to determine the IC50 for unmodified camptothecin, unmodified paclitaxel and several of the high molecular weight prodrugs prepared as set forth above.
(§2) All compounds were independently tested against one or more of the P388/0 (murine lymphoid neoplasm, Southern Research Institute), HT-29 (human colon carcinoma) and A549 (human lung adeno carcinoma) cell lines.
(§3) The P388/0 cells were grown in RPMI 1640 medium (Whittaker Bioproducts, Walkersville, Md.)+10% FBS (Hyclone Inc., Logan Utah). The HT-29 cells were grown in DMEM (GIBCOBRL)+10% FBS (Hyclone, Inc.). The A549 cells were grown in DMEM/F-12 (Biowhitaker)+10% FBS (Heat inactivated). Bioassays were performed in their respective media containing antibiotics and fungizone.
(§4) Camptothecin and paclitaxel were dissolved in DMSO and diluted to the appropriate concentration in culture media. The PEG-Camptothecin and PEG-paclitaxel prodrugs were dissolved in water and diluted to the appropriate concentrations in culture media.
(§5) The assays were performed in duplicate in 96-well microtiter cell culture plates. Two fold serial dilution of the compounds were done in the microtiter plates. Cells were detached by incubating with 0.1% Trypsin/Versene at 37°. Trypsin was inactivated by adding the appropriate media for each cell line containing 10% FBS. To each well of the microtiter plates, 10,000 cells were added. After three days, cell growth was measured by addition of a metabolic indicator dye, Alamar Blue, according to the manufacturer's protocol. The IC50 value for each test compound was determined and compared to the IC50 for the appropriate reference compound.
HT29 Human colon carcinoma cell line

[2] = test system: P388/0 (murine lymphoid neoplasm) cells; assay: cells; assay type: cell-based; settings: read-out: IC50 (nM) P388
Method: as §1, §2, §3, §4, §5
P-388 Murine leukemia cell line

[3] = test system: one or more of the P388/0, HT-29 and A549 cell lines; assay: cells; assay type: cell-based
Method: as §1, §2, §3, §4, §5
The IC50 values for some of the compounds formed in examples 47-53 were determined using the same process as that described above with regard to example 45 and compared to native camptothecin.

[4] = test system: murine leukemia cell line P388/0; assay: Murine Leukemia Model (In vivo P388); parameters: species or system mouse; settings: ip, days 1-5; for Survival Rate %: survival at 40 days
Method: (§6) In this Example, the in vivo activity of some of the compounds prepared in accordance with the present invention was assessed using the Murine Leukemia Model and the Colorectal Xenograft model.
The compounds shown in the Table below were screened for in vivo activity against the murine leukemia cell line P388/0 (mouse, lymphoid neoplasm). The cell line was obtained from Southern Research Institute (Birmingham, Ala.) and grown in RPMI 1640 supplemented with 10% FBS. P388/0 cells were subcultured two times per week and log phase cultures (viability ≥95%/o) were used for all in vivo experiments. Female CD2F1 mice (Taconic Farms, Germantown, N.Y.) at 7-8 weeks of age were used for study. Following one week of acclimation, mice were implanted ip with P388/0 cells (5×10^5 cells/mouse) at designated day 0 (zero). The mice were randomly assigned to experimental groups (10-20 per group). The groups included Control groups and several which received one of the drugs or prodrugs. The mice were then dosed (500 μL, ip) for 5 consecutive days (days 1-5). Control groups received vehicle (intralipid or water). The mice were monitored for up to 40 days, and the treatment was evaluated and expressed as the percentage survival at 40 days.

[5] = Colorectal Xenograft (In vivo HT-29); parameters: species or system human tumor in nu/nu mice; settings: mouse, in vivo, ip; week 5 (end of treatment); total active dose 62.5 mg/kg
Method: as §6
(§7) Female nu/nu mice (Harlan Sprague Dawley, Madison, Wis.), 18-24 g and 10-14 weeks old, at onset of treatment were used. The solid tumor HT-29 (human, colon adenocarcinoma) was obtained from the ATCC (HTB 38) and grown in DMEM supplemented with 10% FBS. Cells were subcultured once a week and for in vivo experiments viabilities were ≥90%. Mice were housed in microisolator filtration racks, and maintained with filtered acidified water and sterile laboratory chow ad libitum. Following one week of acclimation, tumors were established by injecting 1×10^6 harvested HT-29 tumor cells in a single subcutaneous site, on the flank of mice in the left axillary region. The tumor injection site was observed twice weekly and measured once palpable. The tumor volume for each mouse was determined by measuring two dimensions with calipers and calculated using the formula: tumor volume=(length×width^2)/2. When tumors reached the average volume of 300 mm^3, the mice were divided into their experimental groups. The non-Control groups received Camptothecin 2.5 mg/kg/day, the prodrugs being dosed on the basis of camptothecin content. The mice were sorted to evenly distribute tumor size, grouped into 5 mice/cage, and ear punched for permanent identification. Mice receiving drugs were treated i.p. 5 times a week, Monday through Friday for 5 weeks with 500 μL of test article. Mouse weight and tumor size were measured at the beginning of study and weekly through week 7. The overall growth of tumors was expressed as the percent change in tumor size calculated by subtracting mean initial tumor volume from mean tumor volume at the end of the treatment and dividing by mean initial tumor volume.

[6] = test system: solid tumor HT-29 (human, colon adenocarcinoma); assay: Colorectal Xenograft (In vivo HT-29); parameters: species or system human tumor in nu/nu mice; settings: total active dose 62.5 mg/kg, i.p.
Method: as §6, §7

[7] = cell line not stated, same process as example 45, read-out: IC50

## Bis-Camptothecin-N-PEG40kDa -20-O-Glycinate [Compound 37a]
[1]
  IC50: 110 nM
[2]
  IC50: 24 nM

## CC[C@@]1(OC(=O)OCC(C)C)C(=O)OCc2c1cc1n(c2=O)Cc2cc3ccccc3nc2-1 [Compound 60, camptothecin-20-O-isobutyryl carbonate]
[3]; read-out: IC50
  IC50: 29 nM

## CC[C@@]1(OC(=O)ON2C(=O)CCC2=O)C(=O)OCc2c1cc1n(c2=O)Cc2cc3ccccc3nc2-1 [Compound 56, camptothecin-20-O-N-hydroxysuccinimidyl carbonate]
[3]; [7]
  IC50: 1030 nM

## camptothecin-20-O-PEG5kDa carbamate [Compound 57]
[3]; [7]
  IC50: 912 nM

## Camptothecin-20-O-ester of PEG20kDa diacid
[4]; total active dose 11.4 mg/kg
  50% survival: 21 days
  Survival Rate %: 10%

## CC[C@@]1(OC(=O)OC)C(=O)OCc2c1cc1n(c2=O)Cc2cc3ccccc3nc2-1 [Compound 59, camptothecin-20-O-methyl carbonate]
[3]; [7]
  IC50: 11 nM

## CC[C@@]1(OC(=O)n2ccnc2)C(=O)OCc2c1cc1n(c2=O)Cc2cc3ccccc3nc2-1 [Compound 54, camptothecin-20-O-carbonylimidazolyl carbonate]
[3]; read-out: IC50
  IC50: 69 nM

## CC[C@@]1(O)C(=O)OCc2c1cc1n(c2=O)Cc2cc3ccccc3nc2-1 [Camptothecin, reference compound]
[1]; Homo sapiens, HT-29, 72 h
  IC50: 21 nM
[2]; Mus musculus, P388, 72 h
  IC50: 5 nM
[4]; total active dose 16 mg/kg
  Survival Rate %: 80%
[3]
  IC50: 7 nM
[5]
  mortality at 840 h: 50%
[6]; week 5 (end of treatment)
  Body weight change (%): -3%
  Tumor growth (%): -20%
[6]; week 7 (2 week post treatment)
  Body weight change (%): -3%
  Tumor growth (%): 62%

## Bis-Camptothecin-N-Acetyl-PEG40kDa -20-O-Glycinate [Compound 37b]
[1]
  IC50: 137 nM
[2]
  IC50: 49 nM

## Camptothecin-20-O-ester of 2-PEG40k N-methylcarbamoyl Acetic Acid [Compound 5b]
[1]
  IC50: 153 nM
[2]
  IC50: 18 nM

## Camptothecin-20-O-ester of 2-PEG40kDa Carbamoylacetic Acid [Compound 5a]
[1]; HT-29 human colon carcinoma cell line, three days
  IC50: 30 nM
[2]; P388 murine leukemia cell line, three days
  IC50: 7 nM

## CC[C@@]1(O)C(=O)OCc2c1cc1n(c2=O)Cc2cc3c(CN(C)C)c(O)ccc3nc2-1 [Topotecan, reference compound]
[1]; 72 h, HT-29 human colon carcinoma cell line, three days
  IC50: 99 nM
[2]; Mus musculus, 72 h, P388 murine leukemia cell line, three days
  IC50: 29 nM

## Camptothecin-20-O-Glycinate PEG40kDa -Amide Derivative [Compound 48]
[4]; total active dose 16 mg/kg
  Survival Rate %: 80%
[6]; week 5 (end of treatment)
  Tumor growth (%): -80%
[6]; week 7 (2 week post treatment)
  Tumor growth (%): -96%

## Camptothecin-20-O-Glycinate PEG40kDa Carbamate Derivative [Compound 49]
[1]
  IC50: 40 nM
[2]
  IC50: 33 nM

## CC[C@@]1(OC(=O)Oc2ccc([N+](=O)[O-])cc2)C(=O)OCc2c1cc1n(c2=O)Cc2cc3ccccc3nc2-1 [Compound 55, camptothecin-20-O-paranitrophenyl carbonate]
[3]; [7]
  IC50: 365 nM

— patent US6127355A (priority 1999, dated 2000)
